# Laboratory results reported in patent publication EP4467141A1, “PYRAZOLO-QUINOLINES AS SELECTIVE INHIBITORS OF GENOTOXIC STRESS-INDUCED IKK/NF- KB PATHWAYS FOR CANCER THERAPY” (Max-Delbrück-Centrum für Molekulare Medizin in der …, priority 2023, dated 2024).
# What was measured:
# Test in all cases: Kinase panel study
# Format in all cases: biochemical
# Settings in all cases: read-out: Percentage of inhibition; for inhibition at 1 µM: 1000nM; for inhibition at 10 µM: 10000nM
# [1] = molecular target: T1, ABL1 F317L (Homo sapiens, UniProt P00519, F317L)
# T1 construct: purchased Thermo Fisher Scientific
# T1 sequence (P00519 whole entry F317L): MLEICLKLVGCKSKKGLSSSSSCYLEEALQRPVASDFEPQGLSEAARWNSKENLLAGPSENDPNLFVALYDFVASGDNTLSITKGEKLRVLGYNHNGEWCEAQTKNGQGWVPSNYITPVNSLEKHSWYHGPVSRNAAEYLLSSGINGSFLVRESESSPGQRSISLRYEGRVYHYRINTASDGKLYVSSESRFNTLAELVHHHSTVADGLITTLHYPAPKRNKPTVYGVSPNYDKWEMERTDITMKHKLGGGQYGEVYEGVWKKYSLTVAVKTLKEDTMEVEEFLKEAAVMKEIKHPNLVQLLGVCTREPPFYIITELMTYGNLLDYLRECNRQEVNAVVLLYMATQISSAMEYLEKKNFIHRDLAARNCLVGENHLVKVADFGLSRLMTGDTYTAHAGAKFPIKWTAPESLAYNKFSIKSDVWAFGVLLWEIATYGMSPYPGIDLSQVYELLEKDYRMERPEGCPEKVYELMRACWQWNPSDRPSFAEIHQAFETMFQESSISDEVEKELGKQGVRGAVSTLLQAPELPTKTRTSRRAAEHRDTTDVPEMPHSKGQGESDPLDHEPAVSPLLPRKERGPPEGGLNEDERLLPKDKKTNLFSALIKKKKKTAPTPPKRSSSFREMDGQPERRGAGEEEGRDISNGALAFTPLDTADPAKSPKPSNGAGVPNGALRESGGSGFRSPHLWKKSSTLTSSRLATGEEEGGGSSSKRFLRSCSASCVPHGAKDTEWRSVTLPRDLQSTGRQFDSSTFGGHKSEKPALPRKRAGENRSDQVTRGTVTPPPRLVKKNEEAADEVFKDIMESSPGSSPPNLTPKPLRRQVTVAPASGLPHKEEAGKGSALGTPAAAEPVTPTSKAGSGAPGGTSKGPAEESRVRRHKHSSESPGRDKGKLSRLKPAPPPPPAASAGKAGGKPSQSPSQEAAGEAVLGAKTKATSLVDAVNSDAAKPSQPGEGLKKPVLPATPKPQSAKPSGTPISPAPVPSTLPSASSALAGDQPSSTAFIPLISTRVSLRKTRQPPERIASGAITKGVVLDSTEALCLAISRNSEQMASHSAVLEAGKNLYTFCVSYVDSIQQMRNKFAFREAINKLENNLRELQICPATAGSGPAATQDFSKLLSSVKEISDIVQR
# Summary of the method: (§1)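 Compounds were tested in vitro against the kinase panel by a service lab. Assays followed standard ZLyte or Adapta protocols. Activity was recorded as % inhibition at 10 µM or 1 µM, with IC50 values where determined.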
# [2] = molecular target: T2, CDC42 BPA (MRCKA) (Homo sapiens, UniProt Q5VT25)
# T2 construct: purchased Thermo Fisher Scientific
# Summary of the method: as §1
# [3] = molecular target: T3, CDC42 BPB (MRCKB) (Homo sapiens, UniProt Q9Y5S2)
# T3 construct: purchased Thermo Fisher Scientific
# Summary of the method: as §1
# [4] = molecular target: T4, CDK5/p35 (Homo sapiens, UniProt Q00535)
# T4 construct: purchased Thermo Fisher Scientific
# Summary of the method: as §1
# [5] = molecular target: T5, CSNK1E (CK1 epsilon) R178C (Homo sapiens, UniProt P49674, R178C)
# T5 construct: purchased Thermo Fisher Scientific
# T5 sequence (P49674 1-416 R178C): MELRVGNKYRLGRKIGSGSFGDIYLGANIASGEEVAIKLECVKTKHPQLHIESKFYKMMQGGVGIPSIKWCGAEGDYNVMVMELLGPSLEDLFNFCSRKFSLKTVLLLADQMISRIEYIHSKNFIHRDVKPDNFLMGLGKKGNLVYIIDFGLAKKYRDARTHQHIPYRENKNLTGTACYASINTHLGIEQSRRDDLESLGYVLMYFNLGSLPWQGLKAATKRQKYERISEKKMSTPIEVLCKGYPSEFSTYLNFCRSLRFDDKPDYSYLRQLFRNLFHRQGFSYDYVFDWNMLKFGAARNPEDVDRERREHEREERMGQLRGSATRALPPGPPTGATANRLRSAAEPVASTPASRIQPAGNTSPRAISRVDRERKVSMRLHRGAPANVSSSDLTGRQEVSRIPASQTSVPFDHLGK
# Summary of the method: as §1
# [6] = molecular target: T6, EGFR (ErbB1) L858R (Homo sapiens, UniProt P00533, L858R)
# T6 construct: purchased Thermo Fisher Scientific
# T6 sequence (P00533 25-1210 L858R): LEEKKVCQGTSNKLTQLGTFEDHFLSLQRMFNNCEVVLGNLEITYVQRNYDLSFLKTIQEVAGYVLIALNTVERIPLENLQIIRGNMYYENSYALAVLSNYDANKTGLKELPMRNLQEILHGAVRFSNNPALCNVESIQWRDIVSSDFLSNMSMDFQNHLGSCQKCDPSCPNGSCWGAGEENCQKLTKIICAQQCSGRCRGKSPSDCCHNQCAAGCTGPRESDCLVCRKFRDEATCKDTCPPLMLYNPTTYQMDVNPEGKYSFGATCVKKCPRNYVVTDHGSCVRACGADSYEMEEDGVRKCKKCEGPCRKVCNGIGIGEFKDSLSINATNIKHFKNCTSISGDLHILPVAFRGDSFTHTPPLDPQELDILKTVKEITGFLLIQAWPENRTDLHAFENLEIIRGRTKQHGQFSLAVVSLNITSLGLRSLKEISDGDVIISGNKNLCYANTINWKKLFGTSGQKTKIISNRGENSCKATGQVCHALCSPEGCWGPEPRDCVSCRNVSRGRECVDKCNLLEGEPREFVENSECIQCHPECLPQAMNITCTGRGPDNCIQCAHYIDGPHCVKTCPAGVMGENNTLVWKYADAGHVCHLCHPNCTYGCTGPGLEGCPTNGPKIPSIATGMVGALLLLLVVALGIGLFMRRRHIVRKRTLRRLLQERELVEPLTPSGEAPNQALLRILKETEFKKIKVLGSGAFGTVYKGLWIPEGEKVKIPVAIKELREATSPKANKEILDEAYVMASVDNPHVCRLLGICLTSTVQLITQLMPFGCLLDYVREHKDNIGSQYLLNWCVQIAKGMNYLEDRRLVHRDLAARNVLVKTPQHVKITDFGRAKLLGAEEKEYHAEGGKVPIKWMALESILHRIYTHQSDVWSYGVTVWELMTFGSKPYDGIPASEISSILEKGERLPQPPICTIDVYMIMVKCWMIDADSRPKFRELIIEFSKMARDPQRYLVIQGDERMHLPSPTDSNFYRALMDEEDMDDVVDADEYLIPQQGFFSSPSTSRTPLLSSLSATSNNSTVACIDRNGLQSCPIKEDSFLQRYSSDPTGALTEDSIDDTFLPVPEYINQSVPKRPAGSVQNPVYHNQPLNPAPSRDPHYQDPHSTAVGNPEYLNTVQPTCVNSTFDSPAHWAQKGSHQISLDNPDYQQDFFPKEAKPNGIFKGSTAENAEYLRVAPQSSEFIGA
# Summary of the method: as §1
# [7] = molecular target: T7, GRK7 (Homo sapiens, UniProt Q8WTQ7)
# T7 construct: purchased Thermo Fisher Scientific
# T7 sequence (Q8WTQ7 1-553): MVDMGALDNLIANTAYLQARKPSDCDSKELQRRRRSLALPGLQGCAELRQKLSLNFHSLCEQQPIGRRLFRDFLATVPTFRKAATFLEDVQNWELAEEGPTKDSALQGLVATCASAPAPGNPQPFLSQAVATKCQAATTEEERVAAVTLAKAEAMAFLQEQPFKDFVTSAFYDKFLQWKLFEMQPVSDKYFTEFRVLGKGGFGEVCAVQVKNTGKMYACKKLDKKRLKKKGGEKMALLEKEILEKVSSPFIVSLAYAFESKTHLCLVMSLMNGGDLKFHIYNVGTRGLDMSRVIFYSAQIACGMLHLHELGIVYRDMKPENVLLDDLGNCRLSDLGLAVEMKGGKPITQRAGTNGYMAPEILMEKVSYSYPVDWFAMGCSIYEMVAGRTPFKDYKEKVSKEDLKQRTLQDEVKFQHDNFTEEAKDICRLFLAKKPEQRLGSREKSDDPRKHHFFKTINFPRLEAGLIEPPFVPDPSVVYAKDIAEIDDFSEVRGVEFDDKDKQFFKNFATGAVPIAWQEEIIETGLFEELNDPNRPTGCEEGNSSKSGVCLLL
# Summary of the method: as §1
# [8] = molecular target: T8, MET (cMet) Y1235D (Homo sapiens, UniProt P08581, Y1235D)
# T8 construct: purchased Thermo Fisher Scientific
# T8 sequence (P08581 25-1390 Y1235D): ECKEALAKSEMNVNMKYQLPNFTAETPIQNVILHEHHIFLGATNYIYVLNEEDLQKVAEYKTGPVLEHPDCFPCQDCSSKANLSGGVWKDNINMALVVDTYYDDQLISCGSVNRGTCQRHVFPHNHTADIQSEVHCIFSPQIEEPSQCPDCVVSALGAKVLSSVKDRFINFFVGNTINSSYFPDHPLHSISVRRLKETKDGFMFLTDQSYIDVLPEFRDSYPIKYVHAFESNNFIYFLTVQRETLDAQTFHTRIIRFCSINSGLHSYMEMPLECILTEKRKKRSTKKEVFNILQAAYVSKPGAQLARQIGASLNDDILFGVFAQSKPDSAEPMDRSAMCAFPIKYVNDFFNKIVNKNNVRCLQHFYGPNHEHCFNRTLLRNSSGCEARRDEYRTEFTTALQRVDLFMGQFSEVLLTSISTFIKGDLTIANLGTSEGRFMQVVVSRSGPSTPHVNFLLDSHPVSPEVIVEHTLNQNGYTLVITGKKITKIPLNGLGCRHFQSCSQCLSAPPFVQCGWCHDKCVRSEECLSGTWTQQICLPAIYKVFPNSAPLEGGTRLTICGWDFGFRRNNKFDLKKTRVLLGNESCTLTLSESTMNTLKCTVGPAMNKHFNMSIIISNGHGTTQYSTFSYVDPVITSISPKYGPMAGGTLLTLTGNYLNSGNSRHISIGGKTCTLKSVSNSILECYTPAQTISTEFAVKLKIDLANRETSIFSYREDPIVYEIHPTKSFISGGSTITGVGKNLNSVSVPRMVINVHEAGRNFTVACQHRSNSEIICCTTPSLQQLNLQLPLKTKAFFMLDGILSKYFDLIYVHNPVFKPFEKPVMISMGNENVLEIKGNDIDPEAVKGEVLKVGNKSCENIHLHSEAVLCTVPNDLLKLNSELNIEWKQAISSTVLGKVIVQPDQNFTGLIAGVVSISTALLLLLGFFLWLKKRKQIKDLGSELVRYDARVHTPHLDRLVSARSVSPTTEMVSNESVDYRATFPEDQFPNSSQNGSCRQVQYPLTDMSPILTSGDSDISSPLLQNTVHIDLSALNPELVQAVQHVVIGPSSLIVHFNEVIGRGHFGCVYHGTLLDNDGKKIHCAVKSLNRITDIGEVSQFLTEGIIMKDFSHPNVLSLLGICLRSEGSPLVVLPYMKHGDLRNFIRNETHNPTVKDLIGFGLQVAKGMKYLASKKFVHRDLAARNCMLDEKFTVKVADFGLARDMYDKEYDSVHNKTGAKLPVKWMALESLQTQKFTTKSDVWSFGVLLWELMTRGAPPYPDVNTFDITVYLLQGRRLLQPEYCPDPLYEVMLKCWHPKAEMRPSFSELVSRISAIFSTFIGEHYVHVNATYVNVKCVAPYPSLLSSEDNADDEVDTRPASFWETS
# Summary of the method: as §1
# [9] = molecular target: T9, PAK3 (Homo sapiens, UniProt O75914)
# T9 construct: purchased Thermo Fisher Scientific
# T9 sequence (O75914 whole entry): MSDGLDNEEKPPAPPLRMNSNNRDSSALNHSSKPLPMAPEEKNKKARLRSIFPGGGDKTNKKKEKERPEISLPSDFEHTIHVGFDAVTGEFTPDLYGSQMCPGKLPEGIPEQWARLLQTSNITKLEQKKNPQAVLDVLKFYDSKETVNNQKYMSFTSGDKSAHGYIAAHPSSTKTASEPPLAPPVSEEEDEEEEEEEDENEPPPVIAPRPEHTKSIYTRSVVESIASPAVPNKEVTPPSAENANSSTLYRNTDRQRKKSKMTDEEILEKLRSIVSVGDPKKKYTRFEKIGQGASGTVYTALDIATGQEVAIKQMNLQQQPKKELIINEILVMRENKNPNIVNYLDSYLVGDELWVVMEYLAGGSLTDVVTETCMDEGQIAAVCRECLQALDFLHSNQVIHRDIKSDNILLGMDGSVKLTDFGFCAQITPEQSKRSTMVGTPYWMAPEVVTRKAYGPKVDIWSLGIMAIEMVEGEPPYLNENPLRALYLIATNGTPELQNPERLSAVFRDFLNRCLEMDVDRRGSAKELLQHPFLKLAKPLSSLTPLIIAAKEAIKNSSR
# Summary of the method: as §1
# [10] = molecular target: T10, SRPK1 (Homo sapiens, UniProt Q96SB4)
# T10 construct: purchased Thermo Fisher Scientific
# Summary of the method: as §1
# [11] = molecular target: T11, SRPK2 (Homo sapiens, UniProt P78362)
# T11 construct: purchased Thermo Fisher Scientific
# T11 sequence (P78362 whole entry): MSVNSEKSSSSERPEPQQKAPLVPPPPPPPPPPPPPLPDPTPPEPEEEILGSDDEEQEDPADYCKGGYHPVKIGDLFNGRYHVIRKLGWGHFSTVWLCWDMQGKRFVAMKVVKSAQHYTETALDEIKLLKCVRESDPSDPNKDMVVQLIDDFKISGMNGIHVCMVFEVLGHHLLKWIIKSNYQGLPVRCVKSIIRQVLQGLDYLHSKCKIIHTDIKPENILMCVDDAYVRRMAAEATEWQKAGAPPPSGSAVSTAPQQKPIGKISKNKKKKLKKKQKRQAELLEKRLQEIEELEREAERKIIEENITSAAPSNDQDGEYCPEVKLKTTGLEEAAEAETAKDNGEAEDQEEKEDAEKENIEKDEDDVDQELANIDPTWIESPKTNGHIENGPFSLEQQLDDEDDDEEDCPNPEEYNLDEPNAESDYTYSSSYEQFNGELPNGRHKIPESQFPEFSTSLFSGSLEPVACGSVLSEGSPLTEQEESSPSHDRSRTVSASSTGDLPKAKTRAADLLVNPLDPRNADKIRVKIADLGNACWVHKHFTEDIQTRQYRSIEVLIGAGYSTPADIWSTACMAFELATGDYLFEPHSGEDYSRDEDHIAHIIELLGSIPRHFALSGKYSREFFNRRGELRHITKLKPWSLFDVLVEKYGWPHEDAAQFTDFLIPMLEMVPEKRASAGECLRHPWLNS
# Summary of the method: as §1
structure (smiles),measurement,setting,value
"COc1ccc2c(c1OC)c(=O)n1c3ccc(O)cc3c3ccnc2c31 [MW01, 5-Hydroxy-10,11-dimethoxy-9H-benzo[c]indolo[3,2,1-ij][1,5]naphthyridin-9-one]",inhibition at 1 µM,[1],8%
same,inhibition at 10 µM,[1],13%
same,inhibition at 1 µM,[2],11%
same,inhibition at 10 µM,[2],15%
same,inhibition at 1 µM,[3],0%
same,inhibition at 10 µM,[3],5%
same,inhibition at 1 µM,[4],17%
same,inhibition at 10 µM,[4],14%
same,inhibition at 1 µM,[5],23%
same,inhibition at 10 µM,[5],64%
same,inhibition at 1 µM,[6],3%
same,inhibition at 10 µM,[6],5%
same,inhibition at 1 µM,[7],-2%
same,inhibition at 10 µM,[7],0%
same,inhibition at 1 µM,[8],-2%
same,inhibition at 10 µM,[8],4%
same,inhibition at 1 µM,[9],10%
same,inhibition at 10 µM,[9],15%
same,inhibition at 1 µM,[10],12%
same,inhibition at 10 µM,[10],15%
same,inhibition at 1 µM,[11],-2%
same,inhibition at 10 µM,[11],0%
"COc1ccc2cc3c(N)nn(C(=O)c4cccc(N(C)C)c4)c3nc2c1 [MW05, (3-Amino-7-methoxypyrazolo[3,4-b]quinolin-1-yl)-[3-(dimethylamino)phenyl]methanone]",inhibition at 1 µM,[1],6%
same,inhibition at 10 µM,[1],4%
same,inhibition at 1 µM,[2],9%
same,inhibition at 10 µM,[2],2%
same,inhibition at 1 µM,[3],5%
same,inhibition at 10 µM,[3],-6%
same,inhibition at 1 µM,[4],5%
same,inhibition at 10 µM,[4],7%
same,inhibition at 1 µM,[5],0%
same,inhibition at 10 µM,[5],6%
same,inhibition at 1 µM,[6],6%
same,inhibition at 10 µM,[6],16%
same,inhibition at 1 µM,[7],-2%
same,inhibition at 10 µM,[7],5%
same,inhibition at 1 µM,[8],1%
same,inhibition at 10 µM,[8],-44%
same,inhibition at 1 µM,[9],26%
same,inhibition at 10 µM,[9],15%
same,inhibition at 1 µM,[10],8%
same,inhibition at 10 µM,[10],10%
same,inhibition at 1 µM,[11],4%
same,inhibition at 10 µM,[11],10%
